Here are results for 22 compounds from US20230212144A1, “5-MEMBERED HETEROARYL DERIVATIVE CONTAINING AT LEAST ONE N, AND PHARMACEUTICAL COMPOSITION FOR PREVENTING OR TREATING MENTAL DISORDERS, CONTAINING SAME AS ACTIVE INGREDIENT” (DAEGU-GYEONGBUK MEDICAL INNOVATION FOUNDATION, priority 2020, published 2023).

pIC50: −log10 of the molar value.

In test [1] the target is serotonin transporter (SERT) (Homo sapiens, UniProt P31645). Briefly: Serotonin reuptake inhibition, [3H]-5-HT, cells transfected with 5-HT transporter cDNA. To be noted: for Triple reuptake inhibition (Ratio %) SERT: compound 1 μM, relative to control without compound (100%), lower value = stronger inhibition.
Chain of serotonin transporter (SERT) (P31645 whole entry, species assumed): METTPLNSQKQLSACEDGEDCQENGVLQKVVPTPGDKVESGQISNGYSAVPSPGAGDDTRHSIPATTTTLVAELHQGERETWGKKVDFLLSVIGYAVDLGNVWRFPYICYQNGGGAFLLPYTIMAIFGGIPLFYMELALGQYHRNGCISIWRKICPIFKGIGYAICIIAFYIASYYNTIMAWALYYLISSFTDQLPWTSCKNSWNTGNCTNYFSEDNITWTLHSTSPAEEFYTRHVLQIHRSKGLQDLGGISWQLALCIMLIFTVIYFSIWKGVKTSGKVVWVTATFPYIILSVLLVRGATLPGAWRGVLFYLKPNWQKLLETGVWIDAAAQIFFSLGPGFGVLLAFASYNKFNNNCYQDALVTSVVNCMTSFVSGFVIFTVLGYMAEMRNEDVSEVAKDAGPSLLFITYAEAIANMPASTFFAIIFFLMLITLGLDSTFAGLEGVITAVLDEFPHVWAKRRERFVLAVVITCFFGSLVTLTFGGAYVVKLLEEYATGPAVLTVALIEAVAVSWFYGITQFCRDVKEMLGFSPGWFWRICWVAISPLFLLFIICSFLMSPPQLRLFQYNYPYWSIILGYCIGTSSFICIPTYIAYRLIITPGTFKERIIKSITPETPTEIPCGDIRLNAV
Method: (§1) After removing the medium, each compound of Examples or Comparative Examples diluted to 1 μM in uptake buffer was added to a concentration of 200 μL/well and cultured at 37° C. for 15 minutes. 100 μL of uptake buffer containing 20-30 nM [3H]-DA was added and cultured at 37° C. for 5 minutes. The reaction solution was quickly removed and washed three times with 1 mL ice-cold uptake buffer. After dissolving the resultant in 1% SDS (0.5 mL), the degree of binding of radioisotope-labeled dopamine to the transporter was measured.
For norepinephrine(NE) and serotonin(5-HT), the degree of binding of radioisotope-labeled norepinephrine or serotonin to the transporter was measured in the same manner as above, except that cells transfected with NE or 5-HT transporter cDNA were used and [3H]-NE or [3H]-5-HT was used as a substrate.
(§2) In addition, when evaluating the reuptake inhibitory effect on dopamine, norepinephrine, and serotonin, the same method was performed without treating each compound of Examples or Comparative Examples as a control, the degree of binding of radioisotope-labeled dopamine, norepinephrine, and serotonin to the transporter was measured, and by using this as a reference (100%), the triple reuptake inhibitory effect was evaluated as a relative ratio (Ratio %). That is, in the control group, the binding of dopamine, norepinephrine, and serotonin to transporters is not inhibited, but when each compound of Examples is treated and thus the binding is inhibited, the Ratio % value decreases.
For test [2], the target named is norepinephrine transporter (NET) (Homo sapiens, UniProt P23975). Briefly: Norepinephrine reuptake inhibition, [3H]-NE, cells transfected with NE transporter cDNA. To be noted: for Triple reuptake inhibition (Ratio %) NET: compound 1 μM, relative to control without compound (100%), lower value = stronger inhibition.
Chain of norepinephrine transporter (NET) (P23975 whole entry, species assumed): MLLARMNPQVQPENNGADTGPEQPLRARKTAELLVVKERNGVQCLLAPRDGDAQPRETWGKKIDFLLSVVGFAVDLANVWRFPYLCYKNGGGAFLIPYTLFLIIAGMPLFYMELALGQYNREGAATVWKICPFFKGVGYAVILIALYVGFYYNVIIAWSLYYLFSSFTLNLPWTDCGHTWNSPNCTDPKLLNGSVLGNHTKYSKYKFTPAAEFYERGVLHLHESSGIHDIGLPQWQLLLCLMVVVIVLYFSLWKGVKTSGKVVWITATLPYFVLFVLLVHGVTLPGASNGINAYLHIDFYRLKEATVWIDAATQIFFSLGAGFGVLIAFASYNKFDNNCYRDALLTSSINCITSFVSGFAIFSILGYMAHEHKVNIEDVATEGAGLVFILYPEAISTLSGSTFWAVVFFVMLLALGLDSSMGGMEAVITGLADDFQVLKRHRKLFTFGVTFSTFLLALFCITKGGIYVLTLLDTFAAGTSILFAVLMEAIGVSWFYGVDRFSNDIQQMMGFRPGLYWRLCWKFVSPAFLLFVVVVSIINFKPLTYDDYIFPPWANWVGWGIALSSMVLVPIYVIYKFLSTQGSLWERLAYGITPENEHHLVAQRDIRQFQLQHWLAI
Test [3] concerns the target dopamine transporter (DAT) (Homo sapiens, UniProt Q01959). Put plainly: Dopamine reuptake inhibition, [3H]-DA, HEK-293 cells transfected with dopamine transporter cDNA. As to conditions: for Triple reuptake inhibition (Ratio %) DAT: compound 1 μM, relative to control without compound (100%), lower value = stronger inhibition.
Method: as §1, §2

Chain of dopamine transporter (DAT) (Q01959 whole entry, species assumed): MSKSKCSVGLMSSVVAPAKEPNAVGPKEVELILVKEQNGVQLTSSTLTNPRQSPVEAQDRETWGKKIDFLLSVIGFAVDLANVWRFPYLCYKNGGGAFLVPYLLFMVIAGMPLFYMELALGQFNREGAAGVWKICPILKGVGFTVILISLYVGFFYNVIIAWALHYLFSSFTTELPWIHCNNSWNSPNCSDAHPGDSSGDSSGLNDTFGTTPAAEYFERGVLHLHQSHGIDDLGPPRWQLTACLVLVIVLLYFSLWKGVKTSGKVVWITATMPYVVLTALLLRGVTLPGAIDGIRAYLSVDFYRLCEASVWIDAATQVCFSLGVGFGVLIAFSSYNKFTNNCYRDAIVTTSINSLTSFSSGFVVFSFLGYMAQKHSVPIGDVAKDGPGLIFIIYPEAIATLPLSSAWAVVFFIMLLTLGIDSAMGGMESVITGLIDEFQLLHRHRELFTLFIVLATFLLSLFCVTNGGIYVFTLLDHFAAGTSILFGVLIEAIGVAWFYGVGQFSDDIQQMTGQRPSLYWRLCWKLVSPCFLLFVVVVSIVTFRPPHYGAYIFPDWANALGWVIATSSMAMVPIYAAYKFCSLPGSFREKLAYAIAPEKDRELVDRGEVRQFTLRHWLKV

Consider `COc1ccc2[nH]cc(-c3nnc(CN4CCC(Cc5ccccc5)CC4)[nH]3)c2c1` [Example 36, 3-(5-((4-benzylpiperidin-1-yl)methyl)-4H-1,2,4-triazol-3-yl)-5-methoxy-1H-indole], for which, in test [1], the “Triple reuptake inhibition (Ratio %) SERT” value worked out at 41.52%. Further, the “Triple reuptake inhibition (Ratio %) NET” value in test [2] is 85.40%. Further, the “Triple reuptake inhibition (Ratio %) DAT” value in test [3] is on record as 69.78%.

Turning to `FC(F)(F)c1ccc(-c2nnc(CN3CCC(Cc4ccc(Cl)c(Cl)c4)CC3)[nH]2)cc1` [Example 62, 4-(3,4-dichlorobenzyl)-1-((5-(4-(trifluoromethyl)phenyl)-4H-1,2,4-triazol-3-yl)methyl)piperidine], the “Triple reuptake inhibition (Ratio %) SERT” value in test [1] is 79.73%. In test [2], the “Triple reuptake inhibition (Ratio %) NET” value is recorded as 36.41%. Further, the “Triple reuptake inhibition (Ratio %) DAT” value in test [3] is reported as 52.96%.

`COc1cccc2cc(-c3nnc(CN4CCC(Cc5ccccc5)CC4)[nH]3)[nH]c12` [Example 19, 2-(5-((4-benzylpiperidin-1-yl)methyl)-4H-1,2,4-triazol-3-yl)-7-methoxy-1H-indole]: in test [1], the pIC50 is 5.93 and the “Triple reuptake inhibition (Ratio %) SERT” value worked out at 81.23%. Further, in test [2], the pIC50 was 6.73 and the “Triple reuptake inhibition (Ratio %) NET” value is 15.80%. In test [3], the negative logarithm of the IC50 (pIC50) was 6.61 and the “Triple reuptake inhibition (Ratio %) DAT” value is listed as 21.23%.

For `c1ccc(CC2CCN(Cc3nnc(-c4ccc5ccccc5c4)[nH]3)CC2)cc1` [Example 21, 4-benzyl-1-((5-(naphthalen-2-yl)-4H-1,2,4-triazol-3-yl)methyl)piperidine], in test [1], the negative-log IC50 (pIC50) is 5.68 and the “Triple reuptake inhibition (Ratio %) SERT” value was 50.05%. In addition, in test [2], the pIC50 was 6.21 and the “Triple reuptake inhibition (Ratio %) NET” value came out at 27.49%. Further, in test [3], the pIC50 is 6.59 and the “Triple reuptake inhibition (Ratio %) DAT” value amounted to 20.41%.

For `Fc1ccc2[nH]c(-c3nnc(CN4CCC(c5c[nH]c6ccccc56)CC4)[nH]3)cc2c1` [Example 32, 2-(5-((4-(1H-indol-3-yl)piperidin-1-yl)methyl)-4H-1,2,4-triazol-3-yl)-5-fluoro-1H-indole], the “Triple reuptake inhibition (Ratio %) SERT” value in test [1] was determined as 51.31%. Besides, the “Triple reuptake inhibition (Ratio %) NET” value in test [2] stood at 93.09%. For the same compound, in test [3], the “Triple reuptake inhibition (Ratio %) DAT” value was 44.81%.

For the compound `CC(=O)Nc1ccc(-c2nnc(CN3CCC(Cc4ccccc4)CC3)[nH]2)cc1` [Example 51, N-(4-(5-((4-benzylpiperidin-1-yl)methyl)-4H-1,2,4-triazol-3-yl)phenyl)acetamide], in test [1], the “Triple reuptake inhibition (Ratio %) SERT” value is 38.36%. Besides, the “Triple reuptake inhibition (Ratio %) NET” value in test [2] is 56.36%. Moreover, the “Triple reuptake inhibition (Ratio %) DAT” value in test [3] is on record as 75.88%.

Turning to `COc1ccc2cc(-c3nnc(CN4CCC(Cc5ccccc5)CC4)[nH]3)[nH]c2c1` [Example 18, 2-(5-((4-benzylpiperidin-1-yl)methyl)-4H-1,2,4-triazol-3-yl)-6-methoxy-1H-indole], in test [1], the negative logarithm of the IC50 (pIC50) is 5.80 and the “Triple reuptake inhibition (Ratio %) SERT” value was found to be 66.40%. In addition, in test [2], the negative-log IC50 (pIC50) was 6.21 and the “Triple reuptake inhibition (Ratio %) NET” value stood at 22.07%. Also, in test [3], the pIC50 was 7.12 and the “Triple reuptake inhibition (Ratio %) DAT” value came to 37.07%.

`Oc1ccc2cc(-c3nnc(CN4CCC(Cc5ccccc5)CC4)[nH]3)ccc2c1` [Example 52, 6-(5-((4-benzylpiperidin-1-yl)methyl)-4H-1,2,4-triazol-3-yl)naphthalen-2-ol]: the “Triple reuptake inhibition (Ratio %) SERT” value in test [1] was 52.31%. Further, the “Triple reuptake inhibition (Ratio %) NET” value in test [2] is given as 50.92%. Moreover, the “Triple reuptake inhibition (Ratio %) DAT” value in test [3] was determined as 48.72%.

Take `FC(F)(F)c1ccc2[nH]c(-c3nnc(CN4CCC(Cc5ccccc5)CC4)[nH]3)cc2c1` [Example 23, 2-(5-((4-benzylpiperidin-1-yl)methyl)-4H-1,2,4-triazol-3-yl)-5-(trifluoromethyl)-1H-indole]: the “Triple reuptake inhibition (Ratio %) SERT” value in test [1] turned out to be 125.38%. Further, the “Triple reuptake inhibition (Ratio %) NET” value in test [2] is 90.00%. Further, the “Triple reuptake inhibition (Ratio %) DAT” value in test [3] was found to be 46.60%.

As for `COc1ccc2[nH]c(-c3nnc(CN4CCC(Cc5ccccc5)CC4)[nH]3)cc2c1` [Example 13, 2-(5-((4-benzylpiperidin-1-yl)methyl)-4H-1,2,4-triazol-3-yl)-5-methoxy-1H-indole], in test [1], the pIC50 is 5.92 and the “Triple reuptake inhibition (Ratio %) SERT” value was found to be 60.60%. Moreover, in test [2], the pIC50 is 7.15 and the “Triple reuptake inhibition (Ratio %) NET” value came to 4.78%. Also, in test [3], the “Triple reuptake inhibition (Ratio %) DAT” value is on record as 10.00%.

For the compound `Clc1ccc(CC2CCN(Cc3nnc(-c4cc5ccccc5[nH]4)[nH]3)CC2)cc1Cl` [Example 5, 2-(5-((4-(3,4-dichlorobenzyl)piperidin-1-yl)methyl)-4H-1,2,4-triazol-3-yl)-1H-indole], the “Triple reuptake inhibition (Ratio %) SERT” value in test [1] came out at 91.11%. Besides, the “Triple reuptake inhibition (Ratio %) NET” value in test [2] amounted to 78.01%. For the same compound, the “Triple reuptake inhibition (Ratio %) DAT” value in test [3] was determined as 88.53%.

`Clc1ccc(CC2CCN(Cc3nnc(-c4cc5ccccc5[nH]4)o3)CC2)cc1Cl` [Example 34, 2-((4-(3,4-dichlorobenzyl)piperidin-1-yl)methyl)-5-(1H-indol-2-yl)-1,3,4-oxadiazole]: in test [1], the “Triple reuptake inhibition (Ratio %) SERT” value is on record as 94.18%. For the same compound, in test [2], the “Triple reuptake inhibition (Ratio %) NET” value was determined as 124.25%. For the same compound, in test [3], the “Triple reuptake inhibition (Ratio %) DAT” value is listed as 90.85%.

For the compound `FC(F)(F)Oc1ccc(-c2nnc(CN3CCC(Cc4ccccc4)CC3)[nH]2)cc1` [Example 49, 4-benzyl-1-((5-(4-(trifluoromethoxy)phenyl)-4H-1,2,4-triazol-3-yl)methyl)piperidine], in test [1], the negative logarithm of the IC50 (pIC50) is 5.75 and the “Triple reuptake inhibition (Ratio %) SERT” value is 63.99%. In test [2], the negative logarithm of the IC50 (pIC50) was 6.32 and the “Triple reuptake inhibition (Ratio %) NET” value stood at 44.81%. Besides, in test [3], the negative logarithm of the IC50 (pIC50) is 6.65 and the “Triple reuptake inhibition (Ratio %) DAT” value is listed as 11.41%.

For `COc1ccc(CC2CCN(Cc3nnc(-c4cc5ccccc5[nH]4)[nH]3)CC2)cc1` [Example 6, 2-(5-((4-(4-methoxybenzyl)piperidin-1-yl)methyl)-4H-1,2,4-triazol-3-yl)-1H-indole], in test [1], the “Triple reuptake inhibition (Ratio %) SERT” value stood at 70.39%. Further, in test [2], the “Triple reuptake inhibition (Ratio %) NET” value was 88.83%. The “Triple reuptake inhibition (Ratio %) DAT” value in test [3] was found to be 88.63%.

For the compound `c1ccc(CC2CCN(Cc3nnc(-c4cc5ccccc5[nH]4)o3)CC2)cc1` [Example 33, 2-((4-benzylpiperidin-1-yl)methyl)-5-(1H-indol-2-yl)-1,3,4-oxadiazole], in test [1], the “Triple reuptake inhibition (Ratio %) SERT” value is recorded as 103.08%. The “Triple reuptake inhibition (Ratio %) NET” value in test [2] amounted to 145.38%. The “Triple reuptake inhibition (Ratio %) DAT” value in test [3] is 97.72%.

`c1ccc(CC2CCN(Cc3nnc(-c4ccc(Oc5ccccc5)cc4)[nH]3)CC2)cc1` [Example 53, 4-benzyl-1-((5-(4-phenoxyphenyl)-4H-1,2,4-triazol-3-yl)methyl)piperidine]: the “Triple reuptake inhibition (Ratio %) SERT” value in test [1] worked out at 77.61%. The “Triple reuptake inhibition (Ratio %) NET” value in test [2] came out at 28.99%. Moreover, in test [3], the “Triple reuptake inhibition (Ratio %) DAT” value came to 52.90%.

Consider `Clc1ccc2[nH]c(-c3nnc(CN4CCN(Cc5ccccc5)CC4)[nH]3)cc2c1` [Example 65, 2-(5-((4-benzylpiperazin-1-yl)methyl)-4H-1,2,4-triazol-3-yl)-5-chloro-1H-indole], for which, in test [1], the “Triple reuptake inhibition (Ratio %) SERT” value came out at 92.53%. Moreover, the “Triple reuptake inhibition (Ratio %) NET” value in test [2] turned out to be 67.11%. The “Triple reuptake inhibition (Ratio %) DAT” value in test [3] was determined as 28.61%.

Turning to `Clc1cccc2[nH]c(-c3nnc(CN4CCC(Cc5ccccc5)CC4)[nH]3)cc12` [Example 24, 2-(5-((4-benzylpiperidin-1-yl)methyl)-4H-1,2,4-triazol-3-yl)-4-chloro-1H-indole], the “Triple reuptake inhibition (Ratio %) SERT” value in test [1] was determined as 109.21%. Besides, the “Triple reuptake inhibition (Ratio %) NET” value in test [2] is reported as 26.69%. For the same compound, the “Triple reuptake inhibition (Ratio %) DAT” value in test [3] was 6.56%.

Turning to `COc1ccc(-c2nnc(CN3CCC(Cc4ccccc4)CC3)[nH]2)cc1OC` [Example 48, 4-benzyl-1-((5-(3,4-dimethoxyphenyl)-4H-1,2,4-triazol-3-yl)methyl)piperidine], in test [1], the negative-log IC50 (pIC50) was 5.59 and the “Triple reuptake inhibition (Ratio %) SERT” value stood at 53.41%. In addition, in test [2], the negative logarithm of the IC50 (pIC50) is 6.46 and the “Triple reuptake inhibition (Ratio %) NET” value amounted to 23.52%. Moreover, in test [3], the pIC50 was 6.87 and the “Triple reuptake inhibition (Ratio %) DAT” value is reported as 20.20%.

Turning to `COc1ccc2c(-c3nnc(CN4CCC(Cc5ccc(Cl)c(Cl)c5)CC4)[nH]3)c[nH]c2c1` [Example 59, 3-(5-((4-(3,4-dichlorobenzyl)piperidin-1-yl)methyl)-4H-1,2,4-triazol-3-yl)-6-methoxy-1H-indole], in test [1], the pIC50 was 6.65 and the “Triple reuptake inhibition (Ratio %) SERT” value was found to be 31.88%. Besides, the “Triple reuptake inhibition (Ratio %) NET” value in test [2] was 77.82%. In addition, the “Triple reuptake inhibition (Ratio %) DAT” value in test [3] is given as 75.06%.

`Nc1ccc2[nH]cc(-c3nnc(CN4CCC(Cc5ccccc5)CC4)[nH]3)c2c1` [Example 43, 3-(5-((4-benzylpiperidin-1-yl)methyl)-4H-1,2,4-triazol-3-yl)-1H-indol-5-amine]: in test [1], the negative-log IC50 (pIC50) was 6.30 and the “Triple reuptake inhibition (Ratio %) SERT” value was 35.57%. Also, in test [2], the pIC50 is 5.39 and the “Triple reuptake inhibition (Ratio %) NET” value is recorded as 88.30%. Besides, in test [3], the pIC50 was 6.36 and the “Triple reuptake inhibition (Ratio %) DAT” value was 54.93%.

For `N#Cc1ccc(-c2nnc(CN3CCC(Cc4ccccc4)CC3)[nH]2)cc1` [Example 46, 4-(5-((4-benzylpiperidin-1-yl)methyl)-4H-1,2,4-triazol-3-yl)benzonitrile], in test [1], the negative logarithm of the IC50 (pIC50) is 5.53 and the “Triple reuptake inhibition (Ratio %) SERT” value is on record as 60.13%. Further, in test [2], the negative-log IC50 (pIC50) is 6.09 and the “Triple reuptake inhibition (Ratio %) NET” value came to 53.00%. In addition, in test [3], the negative logarithm of the IC50 (pIC50) is 6.69 and the “Triple reuptake inhibition (Ratio %) DAT” value is 13.85%.
